In publication PMC3776838, “Detection of Phospho-Sites Generated by Protein Kinase CK2 in CFTR: Mechanistic Aspects of Thr1471 Phosphorylation” (PLoS ONE, 2013):
“Also recorded” adds a separate entry of the source.

Tests used:
CFTR wild type = experiment: De novo synthesized CFTR level after CHX wash-out with CK2 inhibitor, wild type; type: cell-based, human; settings: BHK cells, 2 h CHX 100 µg/mL, washed, then 2 µM CX4945 for 2, 4, 8 h, Western blot, vs vehicle, Figure 5A
Description: (§1) Baby hamster kidney cells (BHK) stably expressing human CFTR (hCFTR) either wild type (WT), or Phe508del, or WT T1471A were growth to reach 70–80% confluency. After 2 h-long treatment with 100 µg/mL cyclohexamide, cells were washed with PBS and incubated with 2 µM CX4945 or its vehicle for the indicated time. At each time-point cells were washed with ice-cold PBS, scraped from the plates, pelleted by centrifugation (1200 g for 5 min at room tempertaure) and lysed in a buffer containing 1% (v/v) Nonidet P40, 50 mM Tris/HCl (pH 7.5) and 150 mM NaCl with fresh protease inhibitor tablets (Roche), 1 µM Okadaic acid (Alexis) and phosphatases inhibitors cocktails 2 and 3 (Sigma). Cells were lysed by incubation on ice for 30 min and then the lysates were cleared by centrifugation at 17000 g for 30 min at 4°C. The supernatant was collected and subjected to protein concentration quantification.
(§2) Western blot analysis was performed as described in [14] using a modified Laemmli buffer containing 105 mM dithiothreitol (final concentration) to enhance the solubilization of CFTR. […] Immunoblots were developed by enhanced chemiluminescence, detected on Kodak Image Station 440 cf and analyzed by the Kodak 1D image software. […]

CFTR T1471A = experiment: De novo synthesized CFTR level after CHX wash-out with CK2 inhibitor, T1471A; type: cell-based, human; settings: BHK cells; 2 h CHX 100 µg/mL, washed, then 2 µM CX4945 for 2, 4, 8 h; Western blot; vs vehicle; Figure 5B
Description: as §1, §2

Phe508delCFTR = experiment: De novo synthesized CFTR level after CHX wash-out with CK2 inhibitor, Phe508del; type: cell-based, human; settings: BHK cells, washed; for effect on de novo synthesis / accumulation of Phe508delCFTR: 2 h CHX 100 µg/mL, then 2 µM CX4945 for 2, 4, 8 h, Western blot, vs vehicle, Figure 5C
Description: as §1
Western blot analysis was performed as described in [14] using a modified Laemmli buffer containing 105 mM dithiothreitol (final concentration) to enhance the solubilization of CFTR. 20–30 µg of total proteins were separated on 4–12% precast NuPage® Bis-Tris gradient gels (Invitrogen) according to the manufacturer’s instructions and transferred on to Optitran BA-S 83 nitrocellulose membranes (Whatman) with a semi-dry blotter (Biometra) for 1 h at 150 mA. Membranes were saturated for 1 h with 5% skimmed milk in Tris-buffered saline (TBS) containing 0.2% Tween 20. Immunoblots were developed by enhanced chemiluminescence, detected on Kodak Image Station 440 cf and analyzed by the Kodak 1D image software. […]
In order to evaluate the efficacy of CX4945 on the level of de novo synthesized CFTR, protein synthesis was inhibited by two hours cell treatment with cycloheximide (CHX). Blockade was then removed by washing off CHX and newly synthesized CFTR was quantified after 2, 4, and 8 hrs incubation either in the absence or presence of CX4945. […] This point has been corroborated by performing the experiment in triplicate and drawing from it quantification of Phe508delCFTR band B, as reported in Panel D.

CK2 = system: CK2; design: method as in PMID 21870818; settings: ref [43]; cited from earlier work

## O=C(O)c1ccc2c(c1)nc(Nc1cccc(Cl)c1)c1ccncc12 [CX4945]
CFTR wild type
  effect on de novo synthesis / accumulation of CFTR wild type: accumulates more abundantly than in the absence of CK2 inhibitor; also recorded: de novo synthesis of CFTR wild type is significantly stimulated
CFTR wild type; listed as CX-4945
  effect on de novo synthesis / accumulation of CFTR wild type: the re-appearance of CFTR reached higher levels
CFTR T1471A
  effect on de novo synthesis of CFTR T1471A: a similar effect of CX4945 being also detectable; also recorded: a similar effect of CX4945 was observed with CFTR wild type and its T1471A mutant
Phe508delCFTR
  effect on de novo synthesis / accumulation of Phe508delCFTR: the efficacy of inhibiting CK2 is enhanced
Phe508delCFTR; listed as CX-4945
  effect on de novo synthesis / accumulation of Phe508delCFTR: definitely more pronounced in the case of Phe508delCFTR
Phe508delCFTR; 2 h CHX, then 2 µM CX4945 vs vehicle, Western blot quantitation, experiments in triplicate, Figure 5D
  increment of Phe508delCFTR band B: two to three
CK2
  selectivity for CK2: the most selective CK2 inhibitor available to date
